In US20240398783A1, “Compounds and Pharmaceutical Compositions Comprising Inhibitors of Amyloid Peptide Interactions with Glycosaminoglycans, Methods of Treatment and Use Thereof” (Gismo Therapeutics, Inc., priority 2021, published 2024) one finds IC50 and inhibition data, which are given here for 15 compounds.

Design in all cases: species or system porcine
Experiment [1] deals with TDP-43 binding to heparin (HS-GAG) (Homo sapiens, UniProt Q13148). Description: Inhibition of TDP-43 binding to immobilized heparin-BSA (ELISA). As to conditions: for IC50: TDP-43, heparin-BSA; for inhibition at 30 µM: read-out: TDP43/Heparin Activity (% inhibition class). The method, then: (§1) Porcine intestinal mucosa heparin conjugated to Bovine Serum Albumin (Heparin-BSA) was prepared as described (Najjam, S. et al. 1997, Cytokine 12, 1013-1022). Heparin is a sulfated HS-GAG and is commonly used as a HS-GAG in biochemical and binding assays (Lindahl, U. and Kjellen, L. (2013) ibid). Heparin-BSA at 0.01 mg/ml in Phosphate Buffered Saline (PBS; pH 7.4) was added to a 96 well polystyrene ELISA plate (NUNC Cat. No. 449824; 100 μl per well) and incubated Over Night (ON) at 4 degrees Celsius. For negative controls, ELISA plates were coated with BSA instead of Heparin-BSA, using the same procedure. Following the incubation, the plate was washed consecutively, by immersion, with de-ionized water and PBS (pH 7.4). The ELISA plate was then blocked with nonfat milk (2%, 200 μl per well) for 2 hours at Room Temperature (RT) with gentle shaking. Following blocking, the plate was washed with de-ionized water then PBS (pH 7.4). GBAPs were dissolved and diluted in PBS (pH 6.5, supplemented with 0.1% BSA) at desired concentrations, added to the ELISA plates containing immobilized Heparin-BSA (100 μl per well) and incubated for 2 hours at RT with gentle shaking. Following incubation, the plate was washed with de-ionized water and three times with PBS (pH 6.5) plus Tween. Bound GBAP was detected by a monoclonal antibody specific for that GBAP, followed by incubation with secondary antibody conjugated to horseradish peroxidase (HRP). Antibody was diluted in PBS (pH 6.5 supplemented with 1% BSA). Following each incubation with antibody, the plate was washed with de-ionized water and three times with PBS (pH 6.5) wash buffer containing 0.1% Tween. The peroxidase substrate chromogen, TMB (Dako Cat. No. S1599) was added (100 μl per well) to the ELISA plate and incubated at room temperature. After 5 minutes ELISA Stop Solution (hydrochloric acid 1N, sulfuric acid 3N) was added (100 μl per well) to stop the peroxidase catalyzed colorimetric reaction. The Optical Density of the samples was measured at 450 nm using an ELISA plate reader (BioTek Synergy H1). Following color development, the % inhibition compared to control (BSA-coated plates) was determined. IC-50s were calculated using GraphPad Prism software.
Chain of TDP-43 binding to heparin (HS-GAG) (Q13148 whole entry): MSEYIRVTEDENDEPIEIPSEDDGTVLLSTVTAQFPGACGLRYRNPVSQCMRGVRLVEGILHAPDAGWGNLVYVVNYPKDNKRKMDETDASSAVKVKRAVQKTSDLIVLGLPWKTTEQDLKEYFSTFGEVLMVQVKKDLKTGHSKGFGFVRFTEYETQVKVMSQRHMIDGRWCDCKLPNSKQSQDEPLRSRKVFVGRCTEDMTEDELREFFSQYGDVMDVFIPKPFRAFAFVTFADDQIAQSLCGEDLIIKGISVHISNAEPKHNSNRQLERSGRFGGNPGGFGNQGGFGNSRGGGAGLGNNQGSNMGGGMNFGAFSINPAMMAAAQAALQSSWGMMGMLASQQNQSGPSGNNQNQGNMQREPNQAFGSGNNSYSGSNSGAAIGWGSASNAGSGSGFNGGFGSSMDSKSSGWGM
The assay was performed as described in Example 43, with the following modifications.
Following to coating the plates with Heparin-BSA, plates were washed as described. The compounds were dissolved in DMSO at 10 mM final concentration and further diluted prior to assay. DMSO concentration in the screening well was up to 2%. Individual compounds were co-incubated with TDP-43 on plates containing immobilized heparin. TDP43 from R&D System (Cat. No. AP-190) was quickly frozen and kept in aliquots at −80 degrees Celsius. TDP-43 dissolved in PBS (pH 6.5, supplemented with BSA, 0.1%) was added to the ELISA plate (100 μl per well) and incubated for 2 hours at RT with gentle shaking. Following the incubation, the plate was washed with de-ionized water and three times with PBS (pH 6.5) plus Tween. Bound TDP-43 was detected by Anti-TDP43 Monoclonal Antibody (R&D System Cat. No. MAB7778), followed by secondary anti-IgG antibody conjugated to HRP (R&D System, Cat. No. HAF007). Following to color development with TMB, as described in Example 43, the Optical Density of the samples was measured at 450 nm using an ELISA plate reader. Following color development, the % inhibition compared to control (no compound, DMSO control) for every compound was determined.
As described in Example 43, Heparin in the form of Heparin-BSA conjugate is used as a source of HS-GAG. For each compound IC-50 value in TDP-43—heparin-BSA binding assay is shown in μM (micromolar). In some cases IC-50 was not measured and % inhibition at 30 μM compound concentration is shown instead. […] All assays were done on 96-well plates in duplicates and experiments were repeated at least twice. […]
For orientation: An ELISA detects its analyte on a solid surface through an enzyme-linked reagent.

The target of experiment [2] is T1, Amyloid-beta(1-42) oligomer binding to heparin (HS-GAG) (Homo sapiens, UniProt P05067).
T1 construct: Beta-amyloid (1-42) was purchased from rPeptide (Cat. No. A1163); purchased rPeptide A1163
T1 sequence (P05067 672-713): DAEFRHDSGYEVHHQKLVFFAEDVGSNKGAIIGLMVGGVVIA
Description: Inhibition of Amyloid-beta(1-42) oligomer binding to immobilized heparin-BSA (ELISA). The following applies: for inhibition at 30 µM: read-out: Abeta42/Heparin Activity (% inhibition class); for IC50: co-incubation on heparin-BSA plates, read-out: Abeta42/Heparin Activity (IC-50). The method, then: as §1
(§2) The assay was performed as described in Example 43, with the following modifications. Following to coating the plates with Heparin-BSA, plates were washed as described. The compounds were dissolved in DMSO at 10 mM final concentration and further diluted prior to assay. DMSO concentration in the screening well was up to 2%. Individual compounds were co-incubated with Beta-amyloid peptides on plates containing immobilized heparin. Beta-amyloid (1-42) was purchased from rPeptide (Cat. No. A1163) and used to prepare oligomers according to Stine et al., 2003 (J Biol Chem. 278(13):11612-22) as follows. 1,1,1,3,3,3-Hexafluoro-2-propanol- (HFIP; Sigma Cat. No. 105228)-treated Beta amyloid (1-42) was dissolved in dry DMSO (Sigma Cat. No. D2650) to 5 mM concentration. Dissolved Beta amyloid (1-42) was then diluted to 100 μM in ice-cold cell culture medium (phenol red-free Ham's F-12; Caisson Labs, Cat. No. HFL05), followed immediately by vortexing for 30 seconds, and incubating at 4 degrees Celsius for 24 h. Resulting Beta amyloid (1-42) oligomers were centrifuged at 12,000 rpm for 10 min at 4 degree Celsius to remove aggregates. Oligomers were then quickly frozen and kept in aliquots at −80 degrees Celsius. Beta-amyloid (1-40) from rPeptide (Cat No. A1153) was dissolved in DMSO, quickly frozen and kept in aliquots at −80 degrees Celsius. Beta-amyloid (1-42) oligomers or Beta-amyloid (1-40) diluted in PBS (pH 6.5, supplemented with BSA, 0.1%) were added to the ELISA plate (100 μl per well) and incubated for 2 hours at RT with gentle shaking. Following the incubation, the plate was washed with de-ionized water and three times with PBS (pH 6.5) plus Tween. […]

The target in experiment [3] is Amyloid-beta(1-40) binding to heparin (HS-GAG) (Homo sapiens, UniProt P05067). Description: Inhibition of Amyloid-beta(1-40) binding to immobilized heparin-BSA (ELISA). As to conditions: for IC50: Abeta(1-40), co-incubation on heparin-BSA plates; for inhibition at 30 µM: read-out: Abeta40/Heparin Activity (% inhibition class). The method, then:
as §1, §2

The mark [4] stands for this setting: Abeta40/Heparin Activity (IC-50).
The mark [5] stands for this setting: read-out: TDP43/Heparin Activity (IC-50).
Where [6] appears, read: read-out: Abeta40/Heparin Activity (IC-50).
[7] abbreviates: 30 μM compound, Abeta(1-42) oligomers, heparin-BSA.

Molecules are shown by their SMILES. Counter-ions that a name gives are not always drawn. Like-named read-outs stand apart in the source and are kept apart here.

Chain of Amyloid-beta(1-40) binding to heparin (HS-GAG) (P05067 672-711): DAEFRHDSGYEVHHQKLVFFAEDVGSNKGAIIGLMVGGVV

In the case of `C/C(=N\Nc1ncnc2cc(F)ccc12)c1ccc(-n2cc[n+](C)c2)nc1` [Compound 26, (E)-1-(5-(1-(2-(7-fluoroquinazolin-4-yl)hydrazineylidene)ethyl)pyridin-2-yl)-3-methyl-1H-imidazol-3-ium phosphoric acid salt], the values for the IC50 in experiment [1] (TDP43/Heparin Activity (IC-50)) and in experiment [3] (setting [4]) were 32.8 µM and 10.2 µM, respectively. In experiment [2], the inhibition at 30 µM was over 30%.

Regarding `C/C(=N\Nc1ncnc2cc(Cl)ccc12)c1ccc(-n2cc(C)nc2C)nc1` [Compound 27, (E)-7-chloro-4-(2-(1-(6-(2,4-dimethyl-1H-imidazol-1-yl)pyridin-3-yl)ethylidene)hydrazineyl)quinazoline hydrochloride], the IC50 is 2.18 µM in experiment [1] (setting [5]) and 2.2 µM in experiment [3] (setting [4]). Further, in experiment [2], the inhibition at 30 µM is over 30%.

As for `CC(=NNc1ncnc2cc(Cl)ccc12)c1ccnc(-n2cnc(C)c2C)c1` [Compound 28, 7-chloro-4-(2-(1-(2-(4,5-dimethyl-1H-imidazol-1-yl)pyridin-4-yl)ethylidene)hydrazineyl)quinazoline], the IC50 in experiment [1] (setting [5]) stood at 5.73 µM; in experiment [2] (Abeta(1-42) oligomers) it was 12.9 µM; in experiment [3] (setting [6]), 3.12 µM.

Turning to `C/C(=N\Nc1ncnc2cc(Cl)ccc12)c1cccc(N2CCN(C)CC2)c1` [Compound 30, 7-chloro-4-(2-(1-(3-(4-methylpiperazin-1-yl)phenyl)ethylidene)hydrazineyl)quinazoline], the IC50 in experiment [1] (TDP43/Heparin Activity (IC-50)) is 12.2 µM. Besides, the inhibition at 30 µM in experiment [2] and in experiment [3] was over 30% in each case.

For `COc1cc(Nc2nncc3cc(Cl)ccc23)cnc1-n1cnc(C)c1C` [Compound 31, 6-chloro-N-(6-(4,5-dimethyl-1H-imidazol-1-yl)-5-methoxypyridin-3-yl)phthalazin-1-amine phosphoric acid salt], the inhibition at 30 µM in experiment [1] and in experiment [2] (setting [7]) was under 30% throughout. Also, in experiment [3] (setting [4]), the IC50 was 23.3 µM.

On to `COc1cc(Nc2cncc3cc(Cl)ccc23)cnc1-n1cnc(C)c1C` [Compound 33, 7-chloro-N-(6-(4,5-dimethyl-1H-imidazol-1-yl)-5-methoxypyridin-3-yl)isoquinolin-4-amine phosphoric acid salt], for which the inhibition at 30 µM in experiment [1], in experiment [2] (setting [7]) and in experiment [3] was under 30% each time.

As for `Clc1ccc2c(Nc3ccc(-n4cncn4)nc3)ncnc2c1` [Compound 34, N-(6-(1H-1,2,4-triazol-1-yl)pyridin-3-yl)-7-chloroquinazolin-4-amine phosphoric acid salt], the IC50 was 5.23 µM in experiment [1] (TDP43/Heparin Activity (IC-50)), 9.93 µM in experiment [2] (Abeta(1-42) oligomers) and 34.8 µM in experiment [3] (setting [4]).

`Fc1cc(/C=N/Nc2ccnc3cc(Cl)ccc23)ccc1-n1ccnc1` [Compound 35, (E)-7-chloro-4-(2-(3-fluoro-4-(1H-imidazol-1-yl)benzylidene)hydrazineyl)quinoline hydrochloride]: the IC50 was 15.6 µM in experiment [1] (TDP43/Heparin Activity (IC-50)) and 15.4 µM in experiment [2] (Abeta(1-42) oligomers). Also, the inhibition at 30 µM in experiment [3] is under 30%.

In the case of `CC(=NNc1ccnc2cc(Cl)ccc12)c1ccc(-n2ccnc2)cc1` [Compound 36, 4-(2-(1-(4-(1H-imidazol-1-yl)phenyl)ethylidene)hydrazineyl)-7-chloroquinoline phosphate], the IC50 is 47.9 µM in experiment [1] (TDP43/Heparin Activity (IC-50)), 14.2 µM in experiment [2] (Abeta(1-42) oligomers) and 13.8 µM in experiment [3] (setting [4]).

Take `Cc1cn(-c2ccc(Nc3cncc4cc(Cl)ccc34)cn2)c(C)n1` [Compound 37, 7-chloro-N-(6-(2,4-dimethyl-1H-imidazol-1-yl)pyridin-3-yl)isoquinolin-4-amine phosphoric acid salt]: the inhibition at 30 µM in experiment [1] and in experiment [2] (setting [7]) was under 30% throughout. The IC50 in experiment [3] (setting [4]) came to 45.6 µM.

For the compound `Clc1ccc2c(N/N=C/c3ccc(-n4ccnc4)cc3)ccnc2c1` [Compound 38, 4-(2-(4-(1H-imidazol-1-yl)benzylidene)hydrazineyl)-7-chloroquinoline dihydrochloride], the IC50 amounted to 5.73 µM in experiment [1] (TDP43/Heparin Activity (IC-50)), 2.74 µM in experiment [2] (Abeta(1-42) oligomers) and 1.28 µM in experiment [3] (setting [4]).

Take `CCN1CCN(c2ccc(Nc3ccnc4cc5ccccc5cc34)cc2)CC1` [Compound 39, N-(4-(4-ethylpiperazin-1-yl)phenyl)benzo[g]quinolin-4-amine]: the inhibition at 30 µM is over 30% in experiment [1] and under 30% in experiment [2] (setting [7]). In addition, in experiment [3] (setting [4]), the IC50 worked out at 20.7 µM.

With `Cc1ncn(-c2ncc(Nc3ncnc4cc(Cl)ccc34)cc2O)c1C` [Compound 40, 5-((7-chloroquinazolin-4-yl)amino)-2-(4,5-dimethyl-1H-imidazol-1-yl)pyridin-3-ol phosphoric acid salt], the values for the IC50 in experiment [1] (TDP43/Heparin Activity (IC-50)) and in experiment [2] (Abeta(1-42) oligomers) were 7.42 µM and 8.65 µM, respectively. For the same compound, in experiment [3], the inhibition at 30 µM was under 30%.

As to `Clc1ccc2c(Nc3ccc(-n4ccnc4)nc3)ncnc2c1` [Compound 41, N-(6-(1H-imidazol-1-yl)pyridin-3-yl)-7-chloroquinazolin-4-amine], the IC50 in experiment [1] (setting [5]) came to 4.25 µM; in experiment [2] (Abeta(1-42) oligomers) it was 72.4 µM; in experiment [3] (setting [6]) it was 32.7 µM.

For `CCN(CC)Cc1cccc(Nc2ccnc3cc(Cl)ccc23)c1` [Compound 42, 7-chloro-N-(3-((diethylamino)methyl)phenyl)quinolin-4-amine], the inhibition at 30 µM in experiment [1] and in experiment [2] (setting [7]) was under 30% throughout. In experiment [3] (setting [4]), the IC50 came to 12.3 µM.
